System: T1, Human TLR7/8
T1 construct: IC50; other: Hu PBMC; ligand RNA-Ig; analyte IL-6; analyte TNFα; ligand R848; IC50 against the RNA-Ig TLR7/8 stimulus; cytokine responses to RNA-Ig complexes in vitro; potency against the RNA-Ig TLR7/8 stimulus versus HCQ
Assay: Human PBMC cell-based assay, R848 stimulus, IL-6 ELISA
Conditions: Hu PBMC; ligand R848; analyte IL-6
Description: Human peripheral blood mononuclear cells (PBMC) were isolated from freshly-drawn heparinized (10 USP units/ml, Hospira, Lakeforest, Ill.) healthy donor whole blood by density gradient (Histopaque® 1077, Sigma, Inc., St. Louis, Mo.). Briefly, 25 ml blood was diluted with 15 ml PBS (without Ca^2+, Mg^2+) in a 50 ml conical tube, and 12 ml Histopaque was underlaid using a spinal needle. Tubes were centrifuged for 45 minutes at 1200 rpm (350×g), and PBMC were collected from the buffy coat. Cells were then washed twice in PBS, and red blood cells were lysed by suspension in 5 ml ammonium chloride solution (1× Red Blood Cell Lysis Buffer, eBioscience) for 5 minutes at room temperature. […]
Antagonist compounds solubilized and serial diluted in 100% DMSO were added in triplicate to cells to yield a final concentration of 0.1% DMSO (v/v). […] Cell culture supernatants were collected, and levels of various human cytokines were assessed as indicated by standard ELISA procedure according to the manufacturer's recommended protocol (BD Biosciences, Inc., San Diego, Calif.).

SMILES: COc1ccc([C@@H]2C[C@H](C(F)(F)F)n3nc(-c4ccc(C(=O)N5CCNCC5)cc4)cc3N2)cc1OC [ER-892887, (4-((5S,7R)-5-(3,4-dimethoxyphenyl)-7-(trifluoromethyl)-4,5,6,7-tetrahydropyrazolo[1,5-a]pyrimidin-2-yl)phenyl)(piperazin-1-yl)methanone]
- IC50: 16 nM

— patent publication US9126999B2, “Tetrahydropyrazolopyrimidine compounds” (EISAI R&D MANAGEMENT CO., LTD., priority 2012, dated 2015)
